Source: US20260376293A1, “METHODS FOR STUDYING GPR158 PHARMACOLOGY AND IDENTIFICATION OF ITS LIGANDS” (UNIVERSITY OF FLORIDA RESEARCH FOUNDATION, INCORPORATED, priority 2022, published 2026)

Target: T1, GPR158 (Homo sapiens, UniProt Q5T848)
T1 sequence (Q5T848 24-1215): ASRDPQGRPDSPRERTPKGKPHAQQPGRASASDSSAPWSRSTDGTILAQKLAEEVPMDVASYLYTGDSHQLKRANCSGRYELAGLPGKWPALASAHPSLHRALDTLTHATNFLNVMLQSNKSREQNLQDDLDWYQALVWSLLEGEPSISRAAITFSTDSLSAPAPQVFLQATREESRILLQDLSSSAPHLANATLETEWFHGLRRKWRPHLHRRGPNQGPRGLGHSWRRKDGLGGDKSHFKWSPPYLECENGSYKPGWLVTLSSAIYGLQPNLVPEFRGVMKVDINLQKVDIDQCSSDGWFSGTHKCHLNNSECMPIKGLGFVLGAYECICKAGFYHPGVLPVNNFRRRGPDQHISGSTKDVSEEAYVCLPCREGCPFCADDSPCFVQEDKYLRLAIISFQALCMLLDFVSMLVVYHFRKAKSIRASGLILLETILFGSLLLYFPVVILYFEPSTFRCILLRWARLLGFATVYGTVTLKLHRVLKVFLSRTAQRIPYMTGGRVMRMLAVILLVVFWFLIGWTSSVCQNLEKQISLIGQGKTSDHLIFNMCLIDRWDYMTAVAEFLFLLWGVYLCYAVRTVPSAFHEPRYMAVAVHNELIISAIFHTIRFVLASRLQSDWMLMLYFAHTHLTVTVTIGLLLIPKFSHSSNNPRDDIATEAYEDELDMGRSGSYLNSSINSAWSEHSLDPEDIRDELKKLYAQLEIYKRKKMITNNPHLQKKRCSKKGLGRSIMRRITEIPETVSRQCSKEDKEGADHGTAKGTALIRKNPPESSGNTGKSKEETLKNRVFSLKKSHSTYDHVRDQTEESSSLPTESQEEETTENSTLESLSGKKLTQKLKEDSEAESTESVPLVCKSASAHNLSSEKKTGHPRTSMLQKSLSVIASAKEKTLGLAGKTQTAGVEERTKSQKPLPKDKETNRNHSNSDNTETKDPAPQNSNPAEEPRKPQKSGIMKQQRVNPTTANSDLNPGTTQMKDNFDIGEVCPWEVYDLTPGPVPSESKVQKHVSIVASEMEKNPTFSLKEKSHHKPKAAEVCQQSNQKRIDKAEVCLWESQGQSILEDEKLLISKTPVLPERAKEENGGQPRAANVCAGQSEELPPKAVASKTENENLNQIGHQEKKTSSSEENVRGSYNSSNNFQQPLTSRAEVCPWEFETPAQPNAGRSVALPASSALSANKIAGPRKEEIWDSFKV
Assay: BRET cAMP assay in U87 glioblastoma cells expressing GPR158
Assay type: cell-based
Set-up: expressed in transfected cells; host or cells: HEK293FT
Conditions: glycine 100 μM
Excerpt: FIGS. 1A-1E Identification of glycine as GPR158 ligand. A) 3D model of the GPR158 cache domain with putative ligand-binding pocket is shown as surface presentation with cartoon representation at the background. B) Schematic of the screening assay design. C) Quantification of cAMP changes mediated by GPR158. BRET signal in response to amino acid application detected in control cells is subtracted from the signal from cells expressing GPR158 and the difference is plotted. Dotted lines denote 2×SD confidence interval. Data shown represent mean±s.e.m. determined from 3 independent experiments performed in triplicate. D) Time course of cAMP change induced with 10 μM of forskolin in glioblastoma cells (U87 MG) in response to glycine (100 μM) application (arrow) in empty cells (control) or cells expressing indicated components. E) Quantification of maximal amplitudes of responses to glycine in panel d. Data shown represent mean±s.e.m. determined from 3 independent experiments performed in triplicate. **p<0.01 (one-way ANOVA).
To study this effect in more detail the inventors analyzed the individual responses to glycine in a kinetic mode.
HEK293FT cells were seeded in a white flat-bottom 96 well plate (Greiner Bio-One) at 50,000 cells per well and transiently transfected using Metafectene Pro with the manufacturer instruction. […] BRET measurements were made in living cells using a microplate reader (PHERAstar FSX; BMG Labtech) equipped with two emission photomultiplier tubes. […]
HEK293FT cells or U87 MG cells (ATCC HTB-14) when indicated were co-transfected with the CAMP sensor Camyel and with untagged receptors (respectively: empty vector, GPR158). BRET ratio was determined by calculating the ratio of the light emitted by RLuc (475 nm with a 30 nm band path width) over the light emitted by the Venus (535 nm with a 30 nm band path width) in order to measure an increase of the signal when cAMP increase. ΔBRET was calculated by subtracting the ctrl cell BRET result from GPR158 expressing cells BRET result in order to get specifically the signal from GPR158 removing all the non-specific signal. […]

Compound: NCC(=O)O [glycine]
- cAMP change in cells lacking GPR158 (U87 cells without GPR158): No glycine-induced changes in cAMP
- cAMP change with co-expressed RGS7/Gβ5 (U87 cells, GPR158 + RGS7/Gβ5): further potentiated
- cAMP change (U87 glioblastoma cells expressing GPR158, forskolin 10 μM): resulted in cAMP decrease
